{"source": "patent US7776847B2", "about": "“Benzisothiazoles useful for treating or preventing HCV infection” (priority 2005, dated 2010)", "tested_on": "HCV replicon", "experiment": "HCV replicon luciferase reporter assay", "assay_type": "cell-based", "settings": "Table 5, read-out: IC50", "how_it_was_run": "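IC50 is the compound amount halving luciferase signal, measured after 24–48 h treatment at various concentrations. Cells carrying the HCV replicon were pre-incubated 24 h at 37° C, 5% CO2 after seeding at about 5,000–7,500 cells/well before dosing.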", "note": "Where two headings read alike, the source gives them in different places.", "data": [{"smiles": "COc1ccc(-c2ccc(CN(C)CCCNc3nsc4ccccc34)cc2)cc1", "note": "[Compound 490, N^1-(benzo[d]isothiazol-3-yl)-N^3-((4′-methoxybiphenyl-4-yl)methyl)-N^3-methylpropane-1,3-diamine]", "values": [{"measurement": "IC50", "setting": "Hepatitis C virus", "result": "< 5", "unit": "µM"}]}, {"smiles": "COc1ccc(-c2ccc(C(=O)NCCCNc3nsc4cccc(C(F)(F)F)c34)cc2)cc1", "note": "[Compound 500, 4′-methoxy-N-(3-(4-(trifluoromethyl)benzo[d]isothiazol-3-ylamino)propyl)biphenyl-4-carboxamide]", "values": [{"measurement": "IC50", "setting": "Hepatitis C virus", "result": "> 5", "unit": "µM"}]}, {"smiles": "CC(C)(C)NS(=O)(=O)c1cccc2snc(NCCCN)c12", "note": "[Compound 506, 3-(3-aminopropylamino)-N-tert-butylbenzo[d]isothiazole-4-sulfonamide]", "values": [{"measurement": "IC50", "result": "> 5", "unit": "µM"}]}, {"smiles": "CC(C)(C)NS(=O)(=O)c1cccc2c(NCCCN)nsc12", "note": "[Compound 507, 3-(3-aminopropylamino)-N-tert-butylbenzo[d]isothiazole-7-sulfonamide]", "values": [{"measurement": "IC50", "result": "> 5", "unit": "µM"}]}, {"smiles": "CC(C)(C)NS(=O)(=O)c1ccc2c(NCCCN)nsc2c1", "note": "[Compound 508, 3-(3-aminopropylamino)-N-tert-butylbenzo[d]isothiazole-6-sulfonamide]", "values": [{"measurement": "IC50", "result": "> 5", "unit": "µM"}]}, {"smiles": "COc1ccc(CNS(=O)(=O)c2ccc3snc(NCCCNC(=O)c4ccc(-c5ccc(OC)cc5)cc4)c3c2)cc1", "note": "[Compound 515, 4′-methoxy-N-(3-(5-(N-(4-methoxybenzyl)sulfamoyl)benzo[d]isothiazol-3-ylamino)propyl)biphenyl-4-carboxamide]", "values": [{"measurement": "IC50", "setting": "Hepatitis C virus", "result": "> 5", "unit": "µM"}]}, {"smiles": "O=C(NCCCNc1nsc2ncccc12)C1CCN(c2nccc(C(F)(F)F)n2)CC1", "note": "[Compound 533, N-(3-(isothiazolo[5,4-b]pyridin-3-ylamino)propyl)-1-(4-(trifluoromethyl)pyrimidin-2-yl)piperidine-4-carboxamide]", "values": [{"measurement": "IC50", "setting": "Hepatitis C virus", "result": "< 5", "unit": "µM"}]}, {"smiles": "CC(C)(C)OC(=O)N[C@H](C(=O)NCCNc1nsc2ccccc12)c1ccccc1", "note": "[Entry 11, (S)-tert-Butyl 2-(2-(Benzo[d]isothiazol-3-ylamino)ethylamino)-2-oxo-1-phenylethylcarbamate]", "values": [{"measurement": "IC50", "setting": "Hepatitis C virus", "result": "< 5", "unit": "µM"}]}, {"smiles": "O=C(c1ccccc1)c1cccnc1C(=O)NCCNc1nsc2ccccc12", "note": "[Entry 12, N-(2-(Benzo[d]isothiazol-3-ylamino)ethyl)-3-benzoylpicolinamide]", "values": [{"measurement": "IC50", "setting": "Hepatitis C virus", "result": "< 5", "unit": "µM"}]}, {"smiles": "Cc1cccc(C(=O)NCCNc2nsc3ccccc23)n1", "note": "[Entry 13, N-(2-(Benzo[d]isothiazol-3-ylamino)ethyl)-6-methylpicolinamide]", "values": [{"measurement": "IC50", "setting": "Hepatitis C virus", "result": "> 5", "unit": "µM"}]}, {"smiles": "COc1ccc(C(=O)NCCNc2nsc3ccccc23)cc1", "note": "[Entry 14, N-(2-(Benzo[d]isothiazol-3-ylamino)ethyl)-4-methoxybenzamide]", "values": [{"measurement": "IC50", "setting": "Hepatitis C virus", "result": "< 5", "unit": "µM"}]}, {"smiles": "CC(C)[C@H](NC(=O)OC(C)(C)C)C(=O)NCCNc1nsc2ccccc12", "note": "[Entry 18, (S)-tert-Butyl 1-(2-(Benzo[d]isothiazol-3-ylamino)ethylamino)-3-methyl-1-oxobutan-2-ylcarbamate]", "values": [{"measurement": "IC50", "setting": "Hepatitis C virus", "result": "< 5", "unit": "µM"}]}, {"smiles": "O=C(NCCNc1nsc2ccccc12)c1ccccn1", "note": "[Entry 25, N-(2-(Benzo[d]isothiazol-3-ylamino)ethyl)picolinamide]", "values": [{"measurement": "IC50", "setting": "Hepatitis C virus", "result": "< 5", "unit": "µM"}]}, {"smiles": "O=C(NCCNc1nsc2ccccc12)c1cccc(Br)n1", "note": "[Entry 27, N-(2-(Benzo[d]isothiazol-3-ylamino)ethyl)-6-bromopicolinamide]", "values": [{"measurement": "IC50", "setting": "Hepatitis C virus", "result": "> 5", "unit": "µM"}]}, {"smiles": "O=C(NCCNc1nsc2ccccc12)c1cccc(Cl)c1", "note": "[Entry 33, N-(2-(Benzo[d]isothiazol-3-ylamino)ethyl)-3-chlorobenzamide]", "values": [{"measurement": "IC50", "setting": "Hepatitis C virus", "result": "> 5", "unit": "µM"}]}, {"smiles": "O=C(NCCNc1nsc2ccccc12)c1c(Cl)cccc1Cl", "note": "[Entry 41, N-(2-(Benzo[d]isothiazol-3-ylamino)ethyl)-2,6-dichlorobenzamide]", "values": [{"measurement": "IC50", "setting": "Hepatitis C virus", "result": "> 5", "unit": "µM"}]}, {"smiles": "O=C(CC1CC1)NCCNc1nsc2ccccc12", "note": "[Entry 71, N-(2-(Benzo[d]isothiazol-3-ylamino)ethyl)-2-cyclopropylacetamide]", "values": [{"measurement": "IC50", "setting": "Hepatitis C virus", "result": "> 5", "unit": "µM"}]}, {"smiles": "O=C(NCCNc1nsc2ccccc12)C1CCCNC1", "note": "(stereo not drawn) [Entry 73, N-(2-(Benzo[d]isothiazol-3-ylamino)ethyl)piperidine-3-carboxamide]", "values": [{"measurement": "IC50", "setting": "Hepatitis C virus", "result": "> 5", "unit": "µM"}]}]}
